Experimental data from patent US4003887A, “Novel penicillins and their preparation” (Sumitomo Chemical Company, Limited, priority 1972, dated 1977).
Values after ≈ are worked out from the molar mass of the structure shown.

Assays:
[1] = tested on: gram-positive and gram-negative bacteria; conditions: literature, words; cited from earlier work
Pseudomonas = conditions: literature, words; cited from earlier work
[2] = tested on: Klebsiella pneumoniae PC1602; experiment: Minimal inhibitory concentration, agar dilution method; assay type: cell-based
Excerpt: (§1) When determined according to the agar dilution method, the penicillins (I) afford the minimal inhibitory concentrations against test microorganisms as shown in Table 2.

Proteus miravilis GN2425 = experiment: as above; assay type: cell-based
Escherichia coli NIHJ = experiment: as above; assay type: cell-based
Excerpt: as §1

[3] = tested on: Pseudomonas aeruginosa 104; experiment: as above; assay type: cell-based
Excerpt: as §1

[4] = tested on: Staphylococcus aureus 209P; experiment: as above; assay type: cell-based
Excerpt: as §1

Molecule | inhibition of growth of gram-positive and gram-negative bacteria [1] | antimicrobial activity against Pseudomonas (Pseudomonas) | MIC [2] [µg/mL] | also measured
6 -(α-amino-isothiazolylacetamido)penicillanic acid | inhibit the growth of various gram-positive and gram-negative bacteria | do not exert any appreciable antimicrobial activity against Pseudomonas | – | –
6-(α-amino-thienylacetamido)penicillanic acid | inhibit the growth of various gram-positive and gram-negative bacteria | do not exert any appreciable antimicrobial activity against Pseudomonas | – | –
CC1(C)S[C@@H]2C(NC(=O)C(N)c3ccc(O)cc3)C(=O)N2[C@H]1C(=O)O (stereo partly drawn) [Amoxycillin, 6-(α-amino-p-hydroxyphenylacetamido)penicillanic acid] | inhibit the growth of various gram-positive and gram-negative bacteria | do not exert any appreciable antimicrobial activity against Pseudomonas | > 200 | –
CC1(C)S[C@@H]2C(NC(=O)C(N)c3ccccc3)C(=O)N2[C@H]1C(=O)O (stereo partly drawn) [Ampicillin, 6-(α-amino-phenylacetamido)penicillanic acid] | inhibit the growth of various gram-positive and gram-negative bacteria | do not exert any appreciable antimicrobial activity against Pseudomonas | – | –
CC1(C)S[C@@H]2[C@H](NC(=O)C3(N)CCCCC3)C(=O)N2[C@H]1C(=O)O [Cyclacillin, 6-(1-amino-cyclohexane)carboxamidopenicillanic acid] | inhibit the growth of various gram-positive and gram-negative bacteria | do not exert any appreciable antimicrobial activity against Pseudomonas | – | –
CC1(C)S[C@@H]2[C@H](NC(=O)[C@H](N)C3=CCC=CC3)C(=O)N2[C@H]1C(=O)O [Epicillin, 6-[α-amino-2-(1,4-hexadienylacetamido)]penicillanic acid] | inhibit the growth of various gram-positive and gram-negative bacteria | do not exert any appreciable antimicrobial activity against Pseudomonas | – | –
CC1(C)S[C@@H]2[C@H](NC(=O)[C@H](NC(=O)c3cnc4ccc(NC(=O)OCc5ccccc5)cc4c3O)c3ccc(O)cc3)C(=O)N2[C@H]1C(=O)O [Example 21] | – | – | 3.13 (≈ 4.56 µM) | MIC (Proteus miravilis GN2425): 12.5 µg/mL (≈ 18.2 µM); MIC (Escherichia coli NIHJ): 12.5 µg/mL (≈ 18.2 µM); MIC [3]: 12.5 µg/mL (≈ 18.2 µM); MIC [4]: 0.39 µg/mL (≈ 0.569 µM)
CC1(C)S[C@@H]2[C@H](NC(=O)[C@H](NC(=O)c3cnc4cncnc4c3O)c3ccc(O)cc3)C(=O)N2[C@H]1C(=O)O [Example 34] | – | – | 12.5 (≈ 23.2 µM) | –
Cc1nc(C)c2ncc(C(=O)N[C@@H](C(=O)N[C@@H]3C(=O)N4[C@@H]3SC(C)(C)[C@@H]4C(=O)O)c3ccc(O)cc3)c(O)c2n1 [Example 35] | – | – | 12.5 (≈ 22.1 µM) | –
CCOC(=O)Oc1ccc([C@@H](NC(=O)c2cnc3c(OC)nc(OC)nc3c2O)C(=O)N[C@@H]2C(=O)N3[C@@H]2SC(C)(C)[C@@H]3C(=O)O)cc1 [Example 36] | – | – | 25 (≈ 37.3 µM) | –
CCOC(=O)Oc1ccc([C@@H](NC(=O)c2cnc3cccnc3c2OC(=O)OCC)C(=O)N[C@@H]2C(=O)N3[C@@H]2SC(C)(C)[C@@H]3C(=O)O)cc1 [Example 37] | – | – | 12.5 (≈ 18.3 µM) | –
CCOC(=O)Oc1ccc([C@@H](NC(=O)c2cnc3cc4c(cc3c2S)OCO4)C(=O)N[C@@H]2C(=O)N3[C@@H]2SC(C)(C)[C@@H]3C(=O)O)cc1 [Example 38] | – | – | 6.25 (≈ 9.35 µM) | –
CCOC(=O)Oc1ccc([C@@H](NC(=O)c2cnc3cccnc3c2S)C(=O)N[C@@H]2C(=O)N3[C@@H]2SC(C)(C)[C@@H]3C(=O)O)cc1 [Example 39] | – | – | 6.25 (≈ 9.99 µM) | –
CC1(C)S[C@@H]2[C@H](NC(=O)C(NC(=O)c3cnc4cccnc4c3S)c3cc(Cl)c(O)c(Cl)c3)C(=O)N2[C@H]1C(=O)O (some centres unmarked) [Example 40] | – | – | 25 (≈ 40.2 µM) | –
COc1cnc2c(O)c(C(=O)N[C@@H](C(=O)N[C@@H]3C(=O)N4[C@@H]3SC(C)(C)[C@@H]4C(=O)O)c3ccc(O)cc3)cnc2n1 [Example 41] | – | – | 25 (≈ 44 µM) | –
CCOC(=O)Oc1ccc([C@@H](NC(=O)c2cnc3scnc3c2O)C(=O)N[C@@H]2C(=O)N3[C@@H]2SC(C)(C)[C@@H]3C(=O)O)cc1 [Example 42] | – | – | 12.5 (≈ 20.3 µM) | –
CC1(C)S[C@@H]2[C@H](NC(=O)[C@H](NC(=O)c3cnc4cccnc4c3S)c3ccc(O)cc3)C(=O)N2[C@H]1C(=O)O [Example 43] | – | – | 6.25 (≈ 11.3 µM) | –
CC1(C)S[C@@H]2[C@H](NC(=O)C(NC(=O)c3ccccn3)c3ccccc3)C(=O)N2[C@H]1C(=O)O (some centres unmarked) [R, reference compound] | – | – | – | Minimal inhibitory concentration [2]: 50 µg/mL (≈ 110 µM)
